This is an account of results in PubChem BioAssay AID606 (Columbia University Molecular Screening Center, 2007).

The source made the active and inactive calls.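 Rule for the calls: active = IC50 under 40 µM in the dose-response test; inactive = IC50 of 40 µM or more, or never dose-tested.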 A value given as a limit tells only on which side of the number the result lay.

This assay deals with Tyrosine-protein phosphatase non-receptor type 22 (Homo sapiens) (UniProt Q9Y2R2). Nature of the assay: inhibition of human PTPN22 tyrosine phosphatase – biochemical, DiFMUP fluorescence, recombinant catalytic domain, 10 µM, primary screen (AID 606). As to conditions: recombinant LYP catalytic domain.
Chain of Tyrosine-protein phosphatase non-receptor type 22 (Homo sapiens) (Q9Y2R2 whole entry, looked up, the tested form may be a part): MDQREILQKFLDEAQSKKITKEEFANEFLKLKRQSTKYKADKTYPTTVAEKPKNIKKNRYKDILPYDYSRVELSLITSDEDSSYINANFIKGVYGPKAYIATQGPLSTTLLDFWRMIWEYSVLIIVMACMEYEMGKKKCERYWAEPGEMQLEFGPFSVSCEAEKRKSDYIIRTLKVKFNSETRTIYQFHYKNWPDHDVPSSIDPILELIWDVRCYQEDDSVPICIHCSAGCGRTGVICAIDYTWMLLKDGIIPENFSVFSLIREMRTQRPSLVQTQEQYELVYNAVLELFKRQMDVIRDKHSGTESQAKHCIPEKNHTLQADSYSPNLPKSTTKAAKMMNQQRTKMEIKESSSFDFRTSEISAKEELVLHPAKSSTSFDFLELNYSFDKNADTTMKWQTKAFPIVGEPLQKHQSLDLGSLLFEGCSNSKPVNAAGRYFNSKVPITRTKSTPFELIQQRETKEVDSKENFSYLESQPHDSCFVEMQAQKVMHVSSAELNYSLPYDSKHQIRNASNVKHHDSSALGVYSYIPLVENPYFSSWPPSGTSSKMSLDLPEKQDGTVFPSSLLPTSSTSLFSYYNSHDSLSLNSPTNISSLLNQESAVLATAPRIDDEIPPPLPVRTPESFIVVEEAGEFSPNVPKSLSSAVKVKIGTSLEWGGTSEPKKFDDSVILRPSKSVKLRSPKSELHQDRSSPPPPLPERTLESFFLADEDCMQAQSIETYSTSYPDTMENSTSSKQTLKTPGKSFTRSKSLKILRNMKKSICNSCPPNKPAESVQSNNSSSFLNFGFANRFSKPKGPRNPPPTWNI

For the compound `Oc1ccc2ccccc2c1C=NC12CN3CCN(CN(C3)C1)C2`, the IC50 (in general, the midpoint of a concentration-inhibition curve) was > 40 µM (inactive).
